According to paper PMC10569036:

Columns and labels:
[1] = shake flask on a mixture of 185; loss from the water phase only; LC-Orbitrap peak areas; settings: room
[2] = shake flask on a mixture of 185; loss from the water phase only; LC-QTOF peak areas; settings: room

| SMILES | log partition 1-octanol / HPLC water, unbuffered, traces of methanol / DMSO [1] [log10] | log partition butyl acetate / HPLC water, unbuffered, traces of methanol / DMSO [1] [log10] | log partition chloroform / HPLC water, unbuffered, traces of methanol / DMSO [1] [log10] | log partition cyclohexane / HPLC water, unbuffered, traces of methanol / DMSO [1] [log10] | log partition dichloromethane / HPLC water, unbuffered, traces of methanol / DMSO [1] [log10] | log partition n-hexane / HPLC water, unbuffered, traces of methanol / DMSO [1] [log10] | log partition n-octane / HPLC water, unbuffered, traces of methanol / DMSO [1] [log10] | log partition n-undecane / HPLC water, unbuffered, traces of methanol / DMSO [1] [log10] | log partition oleylalcohol / HPLC water, unbuffered, traces of methanol / DMSO [1] [log10] | log partition toluene / HPLC water, unbuffered, traces of methanol / DMSO [1] [log10] | log partition 1-octanol / HPLC water, unbuffered, traces of methanol / DMSO [2] [log10] | log partition butyl acetate / HPLC water, unbuffered, traces of methanol / DMSO [2] [log10] | log partition chloroform / HPLC water, unbuffered, traces of methanol / DMSO [2] [log10] | log partition cyclohexane / HPLC water, unbuffered, traces of methanol / DMSO [2] [log10] | log partition dichloromethane / HPLC water, unbuffered, traces of methanol / DMSO [2] [log10] | log partition n-hexane / HPLC water, unbuffered, traces of methanol / DMSO [2] [log10] | log partition n-octane / HPLC water, unbuffered, traces of methanol / DMSO [2] [log10] | log partition n-undecane / HPLC water, unbuffered, traces of methanol / DMSO [2] [log10] | log partition oleylalcohol / HPLC water, unbuffered, traces of methanol / DMSO [2] [log10] | log partition toluene / HPLC water, unbuffered, traces of methanol / DMSO [2] [log10] |
| --- | --- | --- | --- | --- | --- | --- | --- | --- | --- | --- | --- | --- | --- | --- | --- | --- | --- | --- | --- | --- |
| CCNC(=O)C1CC(C)CCC1C(C)C (centres unmarked) | 0.07926 | -0.1005 | 0.05708 | – | -0.08543 | – | – | – | -0.02549 | -0.1964 | 1.736 | 1.72 | 1.704 | – | 1.778 | – | – | – | 1.811 | 1.717 |
| CC(C)N1C(=O)c2ccccc2NS1(=O)=O | 0.1891 | -1.323 | 1.041 | -0.4548 | 0.004436 | -0.9186 | -0.654 | -1.481 | -0.1011 | -0.9524 | -1.303 | -1.026 | 0.1169 | -1.509 | 0.3228 | -1.425 | -1.602 | -1.756 | -1.143 | -0.5708 |
| CN(C1CCCCC1)S(=O)(=O)c1ccccc1N | 1.192 | 0.997 | 0.5005 | 0.7696 | 1.312 | 0.8609 | 0.7922 | 0.7687 | 1.252 | 0.9027 | -0.8134 | 0.2235 | 0.4748 | -0.5397 | 0.1793 | -0.5682 | -0.5115 | -0.8537 | -0.9123 | -0.3194 |

More lines, main results first:

| log partition 1-octanol / HPLC water, unbuffered, traces of methanol / DMSO [1] [log10] | log partition butyl acetate / HPLC water, unbuffered, traces of methanol / DMSO [1] [log10] | log partition chloroform / HPLC water, unbuffered, traces of methanol / DMSO [1] [log10] | log partition cyclohexane / HPLC water, unbuffered, traces of methanol / DMSO [1] [log10] | log partition dichloromethane / HPLC water, unbuffered, traces of methanol / DMSO [1] [log10] | log partition n-hexane / HPLC water, unbuffered, traces of methanol / DMSO [1] [log10] | log partition n-octane / HPLC water, unbuffered, traces of methanol / DMSO [1] [log10] | log partition n-undecane / HPLC water, unbuffered, traces of methanol / DMSO [1] [log10] | log partition oleylalcohol / HPLC water, unbuffered, traces of methanol / DMSO [1] [log10] | log partition toluene / HPLC water, unbuffered, traces of methanol / DMSO [1] [log10] | SMILES | log partition 1-octanol / HPLC water, unbuffered, traces of methanol / DMSO [2] [log10] | log partition butyl acetate / HPLC water, unbuffered, traces of methanol / DMSO [2] [log10] | log partition chloroform / HPLC water, unbuffered, traces of methanol / DMSO [2] [log10] | log partition cyclohexane / HPLC water, unbuffered, traces of methanol / DMSO [2] [log10] | log partition dichloromethane / HPLC water, unbuffered, traces of methanol / DMSO [2] [log10] | log partition n-hexane / HPLC water, unbuffered, traces of methanol / DMSO [2] [log10] | log partition n-octane / HPLC water, unbuffered, traces of methanol / DMSO [2] [log10] | log partition n-undecane / HPLC water, unbuffered, traces of methanol / DMSO [2] [log10] | log partition oleylalcohol / HPLC water, unbuffered, traces of methanol / DMSO [2] [log10] | log partition toluene / HPLC water, unbuffered, traces of methanol / DMSO [2] [log10] |
| --- | --- | --- | --- | --- | --- | --- | --- | --- | --- | --- | --- | --- | --- | --- | --- | --- | --- | --- | --- | --- |
| 1.455 | 1.635 | 1.002 | 0.009613 | 1.347 | -0.1226 | -0.1369 | -0.387 | 1.068 | 0.7892 | Cc1oncc1C(=O)Nc1ccc(C(F)(F)F)cc1 | 2.576 | 3.034 | 2.805 | 0.2033 | 2.511 | 0.07872 | 0.112 | 0.08618 | 2.816 | 2.381 |
| 2.911 | 2.863 | 1.794 | 1.372 | 2.835 | 0.9138 | 0.8981 | 0.6241 | 2.582 | 2.848 | CCC(C)(CC)c1cc(NC(=O)c2c(OC)cccc2OC)on1 | 1.786 | 2.159 | 2.432 | 1.696 | 1.861 | 0.9529 | 1.176 | 1.012 | 2.115 | 2.04 |
